Assay [1] addresses T1, Cytochrome P450 1A2 (Homo sapiens, UniProt P05177).
T1 sequence (P05177 whole entry): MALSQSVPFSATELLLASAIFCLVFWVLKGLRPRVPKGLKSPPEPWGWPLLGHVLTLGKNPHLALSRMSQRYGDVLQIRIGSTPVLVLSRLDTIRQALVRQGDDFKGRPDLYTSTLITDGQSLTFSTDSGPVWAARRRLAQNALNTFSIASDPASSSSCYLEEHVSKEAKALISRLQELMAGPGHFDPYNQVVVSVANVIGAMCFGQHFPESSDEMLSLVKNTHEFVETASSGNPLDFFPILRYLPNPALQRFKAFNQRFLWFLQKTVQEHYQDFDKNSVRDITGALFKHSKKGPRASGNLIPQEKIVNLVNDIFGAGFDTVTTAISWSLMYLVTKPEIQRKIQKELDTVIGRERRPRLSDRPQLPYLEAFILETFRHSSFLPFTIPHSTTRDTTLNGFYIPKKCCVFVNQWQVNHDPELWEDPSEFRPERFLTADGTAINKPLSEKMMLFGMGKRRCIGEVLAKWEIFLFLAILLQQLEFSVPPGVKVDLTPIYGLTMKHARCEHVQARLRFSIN

The nature of assay [2]: luciferase reporter signal suppression in cells – H4 neuroglioma cells, luminescence, dose response (AID 1990). The format is functional, cell-based. (In general: In a reporter assay the amount or activity of a reporter protein is the signal.)
Assay [3] in a line: alpha-synuclein stem-loop luciferase translation blockers – H4 neuroglioma cells, luminescence, confirmation (AID 1988). In kind it is functional, cell-based.
The nature of assay [4]: Luminescence Cell-Based Dose Response HTS to Identify Inhibitors of 5'UTR Stem-Loop Driven Prion Protein mRNA Translation in H4 Neuroglioblastoma Cells. [Related pubchem assays: 1827 (Project Summary), 1813 (Primary HTS)]. The format is functional.
The target of assay [5] is Cytochrome P450 2C9 (Homo sapiens, UniProt P11712).
Assay [6] deals with FAD-linked sulfhydryl oxidase ALR (Homo sapiens, UniProt P55789). Put plainly: ALR-catalysed DTT oxidation blockers – biochemical, H2O2 detection, luminescence, cherry-pick, dose response (AID 493248).
For assay [7], the system named is H9c2. Put plainly: cells. In kind it is functional, cell-based. Particulars: Rattus norvegicus, H9c2, Myocardium.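 Also: confirmatory concentration-response retest of ultra-high-throughput screening hits for modulation of myocardial damage; cell death induced by hydrogen peroxide oxidative stress; compound pretreatment for 60 min then peroxide exposure for 2 h; potency is for protecting the cells against peroxide damage rather than for killing them.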
Assay [8] in a line: viability of uninfected HEp-2 cells – cell-based, HTS, cytotoxicity control for RSV inhibitor project, dose response (AID 2410). In kind it is functional. The following applies: human respiratory syncytial virus.
The target of assay [9] is T2, Corticotropin-releasing factor receptor 2/Corticotropin-releasing factor-binding protein (Homo sapiens, UniProt P24387+Q13324).
T2 sequence (Q13324 whole entry): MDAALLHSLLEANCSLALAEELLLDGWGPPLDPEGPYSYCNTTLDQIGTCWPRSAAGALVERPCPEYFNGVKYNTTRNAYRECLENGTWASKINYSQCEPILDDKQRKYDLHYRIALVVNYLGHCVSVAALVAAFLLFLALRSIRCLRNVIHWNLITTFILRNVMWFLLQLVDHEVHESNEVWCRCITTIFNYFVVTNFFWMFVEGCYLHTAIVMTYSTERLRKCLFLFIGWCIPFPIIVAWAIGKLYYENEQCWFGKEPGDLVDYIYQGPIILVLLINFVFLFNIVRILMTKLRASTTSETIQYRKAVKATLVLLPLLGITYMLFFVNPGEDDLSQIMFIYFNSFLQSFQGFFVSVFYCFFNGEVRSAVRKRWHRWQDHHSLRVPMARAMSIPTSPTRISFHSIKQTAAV
T2 sequence (P24387 whole entry): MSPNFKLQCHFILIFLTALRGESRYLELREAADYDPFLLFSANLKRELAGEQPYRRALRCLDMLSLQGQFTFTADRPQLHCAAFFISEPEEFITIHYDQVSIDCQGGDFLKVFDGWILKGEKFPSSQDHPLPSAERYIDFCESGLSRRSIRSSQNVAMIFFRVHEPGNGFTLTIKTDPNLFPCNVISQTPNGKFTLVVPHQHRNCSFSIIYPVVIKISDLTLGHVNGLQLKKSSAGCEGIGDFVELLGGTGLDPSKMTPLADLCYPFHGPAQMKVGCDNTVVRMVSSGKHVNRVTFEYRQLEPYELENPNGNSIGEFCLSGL
Nature of the assay: activators of CRF receptor 2 with binding protein – uHTS hits, confirmation (AID 602473). In kind it is functional. The following applies: read-out: EC50_Mean.

Assay [10] is described as follows: Trypanosoma cruzi growth suppression in host cells – NIH3T3 host cells, beta-gal luminescence, confirmation (AID 2044).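 Also: intracellular parasites grown in NIH/3T3 mouse fibroblasts as host cells; luminescent beta-galactosidase reporter signal from transgenic T. cruzi replicating inside host cells; inhibitors lower the luminescence signal.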 The format is functional, cell-based.
Assay [11] concerns the target Cytochrome P450 2D6 (Homo sapiens, UniProt P10635).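 Also: CYP2D6 member of a cytochrome P450 panel assay.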
Assay [12] is described as follows: NIH3T3 cell viability loss – ATP luminescence, mouse fibroblasts, counter-screen, dose response (AID 2010).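 Also: cells exposed to compound for about 90 hours before reading.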 In kind it is functional, cell-based. In general terms: The purpose of a counterscreen is to sort out artefacts and off-target activity.
Assay [13] has as its target Cytochrome P450 3A4 (Homo sapiens, UniProt P08684).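 Also: CYP3A4 tested as one member of a cytochrome P450 panel screen.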
Assay [14] deals with Cytochrome P450 2C19 (Homo sapiens, UniProt P33261). Nature of the assay: Cytochrome panel assay with activity outcomes. Panel member name: p450-cyp2c19 Compounds with AC50 equal or less than 10 uM are considered active. The format is functional. Particulars: read-out: AC50.

Calls of active or inactive are those of the source.

A word on the AC50: it is the midpoint of the concentration-response curve, whichever way the signal moves. As usually defined, the IC50 is the concentration at which inhibition is half-maximal. Broadly, the CC50 is the concentration that lowers cell viability or growth by half.

Chain of Cytochrome P450 2C9 (P11712 whole entry): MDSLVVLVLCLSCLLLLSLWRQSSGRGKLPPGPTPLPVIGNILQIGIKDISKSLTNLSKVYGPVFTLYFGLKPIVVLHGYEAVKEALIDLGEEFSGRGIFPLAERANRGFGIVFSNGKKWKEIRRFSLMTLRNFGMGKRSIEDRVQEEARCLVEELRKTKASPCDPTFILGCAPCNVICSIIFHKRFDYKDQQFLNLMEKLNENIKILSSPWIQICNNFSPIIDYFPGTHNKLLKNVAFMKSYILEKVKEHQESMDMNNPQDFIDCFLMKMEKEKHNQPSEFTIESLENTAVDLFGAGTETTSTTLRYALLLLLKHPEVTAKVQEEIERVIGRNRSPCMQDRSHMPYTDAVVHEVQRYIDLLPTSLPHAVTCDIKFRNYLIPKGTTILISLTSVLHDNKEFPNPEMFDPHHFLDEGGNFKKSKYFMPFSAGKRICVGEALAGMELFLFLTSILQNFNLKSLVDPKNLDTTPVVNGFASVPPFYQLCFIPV
Chain of FAD-linked sulfhydryl oxidase ALR (P55789 whole entry): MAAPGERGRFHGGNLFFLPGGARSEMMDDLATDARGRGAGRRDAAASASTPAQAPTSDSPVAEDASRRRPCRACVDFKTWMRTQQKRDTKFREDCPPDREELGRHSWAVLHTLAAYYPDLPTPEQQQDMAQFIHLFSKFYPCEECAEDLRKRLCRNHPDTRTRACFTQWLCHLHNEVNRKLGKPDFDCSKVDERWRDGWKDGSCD
Chain of Cytochrome P450 2C19 (P33261 whole entry): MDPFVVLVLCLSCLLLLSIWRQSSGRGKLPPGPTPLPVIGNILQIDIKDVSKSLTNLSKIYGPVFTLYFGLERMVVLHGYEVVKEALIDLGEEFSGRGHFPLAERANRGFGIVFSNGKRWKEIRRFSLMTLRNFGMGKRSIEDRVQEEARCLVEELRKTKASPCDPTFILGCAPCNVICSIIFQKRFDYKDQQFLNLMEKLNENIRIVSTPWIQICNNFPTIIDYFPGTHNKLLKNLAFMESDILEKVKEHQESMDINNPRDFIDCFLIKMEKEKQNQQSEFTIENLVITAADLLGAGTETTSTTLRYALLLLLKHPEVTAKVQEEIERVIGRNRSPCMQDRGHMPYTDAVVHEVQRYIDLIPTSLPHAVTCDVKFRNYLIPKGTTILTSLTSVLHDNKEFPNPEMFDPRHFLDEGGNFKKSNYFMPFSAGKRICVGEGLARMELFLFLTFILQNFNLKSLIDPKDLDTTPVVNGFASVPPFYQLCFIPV
Chain of Cytochrome P450 2D6 (P10635 whole entry): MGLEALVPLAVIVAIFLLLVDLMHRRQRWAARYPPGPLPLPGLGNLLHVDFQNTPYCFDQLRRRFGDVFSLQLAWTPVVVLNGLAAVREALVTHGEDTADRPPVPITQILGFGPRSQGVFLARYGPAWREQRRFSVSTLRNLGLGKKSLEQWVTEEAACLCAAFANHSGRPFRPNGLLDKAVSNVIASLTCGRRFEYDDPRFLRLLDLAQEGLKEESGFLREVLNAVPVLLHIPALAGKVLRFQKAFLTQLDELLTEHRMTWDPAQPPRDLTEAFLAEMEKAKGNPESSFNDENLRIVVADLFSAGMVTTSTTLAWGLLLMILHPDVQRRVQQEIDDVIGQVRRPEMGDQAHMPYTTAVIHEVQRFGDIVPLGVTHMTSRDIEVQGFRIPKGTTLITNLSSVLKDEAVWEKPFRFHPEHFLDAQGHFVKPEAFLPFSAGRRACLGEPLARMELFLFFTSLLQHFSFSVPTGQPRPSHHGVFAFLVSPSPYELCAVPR
Chain of Cytochrome P450 3A4 (P08684 whole entry): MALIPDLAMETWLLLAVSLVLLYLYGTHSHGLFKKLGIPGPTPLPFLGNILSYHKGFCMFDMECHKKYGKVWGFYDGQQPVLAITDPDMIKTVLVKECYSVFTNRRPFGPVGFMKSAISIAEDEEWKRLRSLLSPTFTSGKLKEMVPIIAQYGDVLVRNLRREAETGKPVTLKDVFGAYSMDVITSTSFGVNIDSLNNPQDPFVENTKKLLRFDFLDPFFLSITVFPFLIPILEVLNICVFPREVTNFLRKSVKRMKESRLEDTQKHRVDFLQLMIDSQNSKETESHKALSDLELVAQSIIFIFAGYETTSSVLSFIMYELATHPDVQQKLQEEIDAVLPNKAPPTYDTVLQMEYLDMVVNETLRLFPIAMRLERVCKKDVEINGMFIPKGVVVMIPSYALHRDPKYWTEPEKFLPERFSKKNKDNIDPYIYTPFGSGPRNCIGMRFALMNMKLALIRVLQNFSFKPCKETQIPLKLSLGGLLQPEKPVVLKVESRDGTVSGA

For `CCN(CC)C(=O)c1ccc(O)c(OC)c1`, the AC50 in assay [1] is 12.6 µM (inconclusive).

Turning to `O=S(=O)(c1ccc(Br)cc1)N1CCC(c2nc3ccccc3[nH]2)CC1`, the EC50 was 11.9 µM (active) in [2] and > 120 µM (not active) in assay [3]. Regarding `COc1ccc(CCNS(=O)(=O)c2cn(C)cn2)cc1OC`, the EC50 in [2], in assay [4] and in assay [3] was > 120 µM (not active) throughout. `Cc1nnc(NC(=O)c2cccc(NC(=O)C(C)C)c2)s1`: the AC50 is 25.1 µM (inconclusive) in [5] and 39.8 µM (inconclusive) in [1]. For `O=C(NCCSc1c[nH]c2ccccc12)C1CC1`, in [6], the AC50 is 8.01 µM (active). As for `CC(C)(C)OC(=O)CNC(=O)c1[nH]cnc1C(=O)NC(c1ccccc1)c1ccccc1`, the IC50 in assay [7] is > 79 µM (inactive).

Consider `CCN(CC)C(=O)CSc1nc(O)c2ccccc2n1`, for which the IC50 in assay [7] is > 79 µM (inactive). In the case of `COc1cc(/C=C/c2n[nH]c(-c3ccccc3O)n2)cc(OC)c1OC`, in [7], the IC50 was > 79 µM (inactive). In the case of `CN(C(=O)COC(=O)c1c2c(nc3ccccc13)/C(=C/c1cccc([N+](=O)[O-])c1)CCC2)C1CCS(=O)(=O)C1` (stereo not given), the values for the EC50 in [2], in assay [4] and in assay [3] were 11.6 µM (active), > 120 µM (not active) and 11 µM (active), respectively. On to `CCC1Nc2ncnc(N3CCN(c4ccccc4)CC3)c2N(Cc2ccc(Cl)cc2)C1=O` (stereo not given), for which, in assay [8], the CC50 is 16.6 µM (active).

`COc1ccc2cc3cc(C(=O)Nc4cc(OC)c(OC)c(OC)c4)oc3nc2c1`: the IC50 in assay [7] is > 79 µM (inactive). For `COc1ccc(-c2c(-c3ccsc3)oc(=O)c3cc(OC)c(OC)cc23)cc1`, the half-maximal cytotoxic concentration (CC50) in assay [8] is 47.2 µM (active).

For `O=c1ccc(NS(=O)(=O)c2ccc(Cl)cc2)cn1Cc1ccc(Cl)c(Cl)c1`, the AC50 in [1] was 28.2 µM (inconclusive). In the case of `Cc1cccc(C(=O)O)c1C[C@H]1NCC[C@H]2c3ccccc3N[C@@H]12`, the half-maximal activity concentration (AC50) in assay [1] was 0.0631 µM (inconclusive). For the molecule `CN(C)Cc1ccccc1Sc1ccc2c(c1)CCCC2`, the EC50 in [2] was > 120 µM (not active); in assay [4], 32.4 µM (active); in assay [3] it was > 120 µM (not active). With `Brc1ccccc1OCCCOc1cccc2cccnc12`, the cytotoxic concentration (CC50) in [8] is 26.3 µM (active). For `CCOc1ccc(C2C=C(c3ccc(C)cc3)Nc3nnnn32)cc1` (stereo not given), in [9], the EC50 is > 53 µM (inactive). On to `Cc1cccc(N2CCN(C(=O)CCCn3c(=S)[nH]c4cc5c(cc4c3=O)OCO5)CC2)c1C`, for which the 50% cytotoxic concentration (CC50) in assay [8] is 23.4 µM (active). The EC50 is 0.389 µM (active) in assay [10] and > 30 µM (not active) in assay [12]. For the same molecule, the half-maximal activity concentration (AC50) in assay [11] is 10 µM (inconclusive). With `CCNc1ncc2nc(-c3ccccc3)c(=O)n(CCc3ccccc3)c2n1`, the values for the half-maximal activity concentration (AC50) in assay [5], in assay [13] and in assay [1] were 1.26 µM (inconclusive), 15.8 µM (inconclusive) and 12.6 µM (inconclusive), respectively. For the molecule `CC1(c2ccccc2)NC(=O)N(CC(=O)Nc2cccc(/C=C/c3ccccn3)c2)C1=O` (stereo not given), the IC50 in [7] was > 79 µM (inactive). In the case of `COC(=O)[C@@]1(Cc2ccc(F)cc2)[C@H]2c3cc(C(=O)N(C)C)n(C)c3C[C@H]2CN1C(=O)c1ccccc1`, the half-maximal activity concentration (AC50) was 25.1 µM (inconclusive) in assay [14] and 31.6 µM (inconclusive) in assay [1].

Turning to `CN(C)c1cc(=O)n2c(n1)SCCC2`, the AC50 in assay [14] was 28.2 µM (inconclusive); in assay [1], 12.6 µM (inconclusive). Take `COc1ccc(-n2c(=O)c(CCc3ccccc3)nc3cncnc32)cc1`: the AC50 was 20 µM (inconclusive) in assay [5] and 25.1 µM (inconclusive) in [1]. `COc1ccccc1NC(=O)Nc1ncccc1C`: the concentration at half-maximal activity (AC50) in assay [6] was 0.903 µM (active). `CCC(C)c1ccc(NC(S)=NCCn2cc(Br)cn2)cc1` (stereo not given): the EC50 in assay [2], in [4] and in assay [3] was > 120 µM (not active) each time.

`CCc1c(C)nc(Nc2nc(C)c3ccc(OC)cc3n2)nc1O`: the IC50 in [7] was > 79 µM (inactive). Consider `Cc1cc(OCC(=O)N2CCOCC2)cc2oc(=O)c3ccccc3c12`, for which, in assay [7], the IC50 is > 79 µM (inactive).

With `Cc1ccc2nc(NC(=O)[C@H](C)N3C(=O)C4CC=CCC4C3=O)sc2c1` (stereo not given in full), the EC50 in assay [2] was 0.556 µM (inconclusive); in [4], > 120 µM (not active). `COc1ccc(C(=O)[C@H]2[C@H]3C(=O)N(c4ccccc4)C(=O)[C@H]3C3C=CC=NN32)cc1` (stereo not given in full): the EC50 in assay [2], in assay [4] and in assay [3] was > 120 µM (not active) each time. Take `CCOc1ccc(-n2ccnc2SCC(=O)Nc2nnc(CC)s2)cc1`: the AC50 in [1] is 20 µM (inconclusive).

For `Cc1cccc2c(=O)cc(C)n(CC(N)=O)c12`, in assay [8], the CC50 was 24.6 µM (active). For `Cc1cc(C)nc(SCc2cccc(C(=O)O)c2)n1`, the EC50 in assay [2] was 17.5 µM (active); in [3] it was 28.8 µM (active).

Consider `C(=C\c1nnc2c3ccccc3ncn12)/c1ccccc1`, for which the EC50 in assay [4] is 7.36 µM (active). For `CCCC(=O)NC(Nc1ccccc1F)C(Cl)(Cl)Cl` (stereo not given), the half-maximal activity concentration (AC50) in [13] was 14.1 µM (inconclusive); in assay [1] it was 22.4 µM (inconclusive). For the molecule `Brc1ccc(CN2CCN(c3ccccc3)CC2)o1`, in assay [6], the half-maximal activity concentration (AC50) was 2.03 µM (active).

As to `CN(C(=O)CSc1nc(O)c2c(n1)CCCC2)C1CCCCC1`, in [7], the IC50 is 33.3 µM (inactive). Take `CCN(CC(=O)Nc1ccc(OC)cc1)C(=O)c1cc(-c2cccs2)nn1-c1ccccc1`: the IC50 in [7] is 36.6 µM (inactive). Take `FC(F)(F)c1cccc(-c2ccn3ncnc3n2)c1`: the CC50 in assay [8] is 35.5 µM (active). `O=C(Nc1ccccc1)c1ccc(-c2ccc(Br)cc2)o1`: in assay [8], the half-maximal cytotoxic concentration (CC50) is 16.9 µM (active). For `O=C(c1ccc(F)cc1)C1CCN(C(S)=Nc2ccccc2)CC1`, the values for the half-maximal activity concentration (AC50) in assay [11], in [14] and in assay [1] were 14.1 µM (inconclusive), 7.08 µM (inconclusive) and 12.6 µM (inconclusive), respectively. On to `COc1cc(-c2cc3nc(NCCc4ccc(S(N)(=O)=O)cc4)ccn3n2)cc(OC)c1OC`, for which the IC50 in assay [7] was > 79 µM (inactive). The same measure, in the same setting: the figure for `CC(=O)OCc1nc(O)c2c(C)c(C)sc2n1` is > 79 µM (inactive). Take `CN1CCN(/N=C/c2nc(-c3cccc([N+](=O)[O-])c3)n3ccccc23)CC1`: the EC50 in assay [9] was > 53 µM (inactive). Take `Cc1cc(/C=N/NC(=O)c2c(Br)cnn2C)c(C)n1-c1cccc(Br)c1`: in [8], the CC50 was 41.5 µM (active). On to `C=CCOc1ccc(/C=N/NC(=O)c2cc3c(OC)cc(OC)cc3[nH]2)cc1`, for which, in [8], the CC50 was 27.4 µM (active). Regarding `Cc1ccc(/N=C2\C(Cl)=C(O)OC2OC(C)C)c(C)c1` (stereo not given), the EC50 in assay [2] was > 120 µM (not active); in assay [4] it was 24.8 µM (active); in [3], > 120 µM (not active). As for `O=c1[nH]nc(Cc2ccccc2)c2ccccc12`, the IC50 in assay [7] is > 79 µM (inactive). `N[C@@H](CCCP(=O)(O)O)C(=O)O`: the half-maximal activity concentration (AC50) in assay [1] is 31.6 µM (inconclusive).

(Values after ChEMBL document CHEMBL1201862, “PubChem BioAssay data set” (2004).)
